Measured values reported in patent publication US20240116985A1, “STAPLED PEPTIDES AND METHODS THEREOF” (priority 2020, published 2024).
≈ marks a conversion by molar mass, not a printed value. Like-named read-outs stand apart in the source and are kept apart here.

How the values were obtained:
[1] = molecular target: T1, full-length B-Catenin (Uniprot ID P35222) (Homo sapiens, UniProt P35222); test: Alphascreen binding assay (beta-catenin / biotin-TCF4 10-53)
T1 construct: 65 nM full-length B-Catenin (Uniprot ID P35222)
T1 sequence (P35222 1-781): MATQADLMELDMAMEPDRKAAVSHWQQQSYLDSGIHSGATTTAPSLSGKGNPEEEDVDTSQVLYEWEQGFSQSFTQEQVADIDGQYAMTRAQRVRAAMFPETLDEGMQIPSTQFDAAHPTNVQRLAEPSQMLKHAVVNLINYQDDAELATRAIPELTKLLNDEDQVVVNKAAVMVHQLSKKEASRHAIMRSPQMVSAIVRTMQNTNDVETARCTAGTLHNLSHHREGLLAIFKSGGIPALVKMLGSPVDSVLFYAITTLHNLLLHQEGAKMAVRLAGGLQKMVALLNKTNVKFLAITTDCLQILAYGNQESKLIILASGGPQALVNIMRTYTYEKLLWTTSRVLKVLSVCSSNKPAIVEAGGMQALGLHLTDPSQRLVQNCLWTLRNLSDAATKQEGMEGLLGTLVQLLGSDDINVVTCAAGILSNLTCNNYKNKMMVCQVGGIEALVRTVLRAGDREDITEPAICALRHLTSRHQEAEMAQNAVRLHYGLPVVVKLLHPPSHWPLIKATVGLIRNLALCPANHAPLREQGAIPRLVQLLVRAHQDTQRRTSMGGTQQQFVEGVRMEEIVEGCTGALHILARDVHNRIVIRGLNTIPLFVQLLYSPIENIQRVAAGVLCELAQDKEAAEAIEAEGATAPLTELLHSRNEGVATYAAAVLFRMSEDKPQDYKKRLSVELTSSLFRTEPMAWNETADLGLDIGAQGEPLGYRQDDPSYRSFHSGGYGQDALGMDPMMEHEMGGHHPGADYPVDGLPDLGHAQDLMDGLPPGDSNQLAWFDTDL
Description: In some embodiments, an assay is an Alphascreen binding assay. A useful protocol is described below as an example.
Alphascreen binding assay: Using the AlphaScreen Histidine (Nickel Chelate) Detection Kit (PerkinElmer), peptide solutions were prepared in buffer (50 mM Tris pH 8.0, 250 mM NaCl, 2% glycerol, 0.03% Tween-20, 0.01% TritonX-100, 0.1% BSA w/v) using a 3-fold serial dilution from 10 uM to 5 nM. Probe solution (65 nM full-length B-Catenin (Uniprot ID P35222), mixed with 10 nM biotin labeled TCF4 residues 10-53 (Uniprot ID Q9NQB0) peptide in buffer) was prepared and 4 uL per well was plated in a white polystyrene 384-well plate (Corning). Equal volume of the titrated peptide was added to the plate and incubated for 15 minutes at 20° C. Then 4 uL of donor and 4 uL acceptor beads at 10 ug/mL were added to the plate, for a 16 uL reaction pool and protected from light for 60 minutes at 20° C. prior to read. Reads were performed on a CLARIOstar plate reader (BMG Labtech) in duplicate, and data were fitted to a 1:1 binding model with hill slope using an in-house script. All provided concentrations are final concentrations.

[2] = molecular target: T2, beta-catenin/TCF4 engagement (Homo sapiens, UniProt P35222); test: Nano-BRET target engagement assay (B-cat-Halo & TCF4-Luc in HEK293 cells); format: cell-based
T2 construct: expressed in transfected cells; host or cells: HEK293
T2 sequence (P35222 1-781): T1 sequence (P35222 1-781)

[3] = system: TCF/LEF luciferase Reporter in DLD1 cells; test: TCF reporter assay (DLD1 TCF/LEF luciferase reporter, Bright-Glo); format: cell-based
Outline: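 DLD1 cells stably carrying a TCF/LEF luciferase reporter were plated at 5000 cells/well in RPMI + 4% FBS and treated overnight with a 1:2 compound dilution series. Bright-Glo luminescence read on day 3; viability by CellTiter-Glo. Absolute IC50 determined.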

[4] = molecular target: T3, full-length beta-Catenin (Uniprot ID P35222) (Homo sapiens, UniProt P35222); test: Fluorescence polarization IC50 (beta-catenin / 5FAM-TCF4 10-53 competition); format: binding
T3 construct: 10 nM full-length beta-Catenin (Uniprot ID P35222)
T3 sequence (P35222 1-781): T1 sequence (P35222 1-781)

Solubility in PBS = format: physicochemical
Outline: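 Solubility is derived from HPLC peak areas: the ratio of the PBS supernatant peak to a 50 μM DMSO peptide peak, times 50 uM.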

CHI Log D procedure = format: physicochemical; settings: for chromatographic logD: pH 7.4, CHI Log D
[5] = absolute IC50, read-out: NanoBRET Abs IC50
[6] = absolute IC50, read-out: DLD1 reporter assay Abs IC50
[7] = read-out: DLD1 4% Abs IC50, DLD1 4%

Structure (SMILES)	EC50 [1] [µM]	IC50 [2, 5] [µM]	IC50 [3, 6] [µM]	IC50 [3, 7] [µM]	IC50 ([4]; read-out: beta-Catenin FP IC50) [µM]	Solubility (Solubility in PBS; Solubility (uM)) [µM]	chromatographic logD (CHI Log D procedure)	IC50 ([2]; read-out: NanoBRET Abs IC50) [µM]	IC50 ([2]; read-out: NanoBRET IC50) [µM]	IC50 ([4]; fluorescence polarization, beta-catenin, read-out: FP EC50) [µM]	Solubility (Solubility in PBS) [µM]	CHI Log D (CHI Log D procedure; pH 7.4)
COc1ccc(C[C@@H]2NC(=O)[C@H](C)NC(=O)[C@H](C)NC(=O)[C@H](CCC(=O)O)NC(=O)[C@H](CC(=O)O)NC(=O)C3(CCCC=CCCCCCC[C@@](C)(C(=O)N[C@@H](Cc4ccccc4)C(=O)N[C@@H](Cc4c[nH]c5ccccc45)C(=O)N[C@@H](CCC(N)=O)C(N)=O)NC(=O)[C@H](C(C)C)NC2=O)CCCC=CC[C@]2(CCCN2C(C)=O)C(=O)N[C@@H](CC(=O)O)C(=O)N[C@@H](C)C(=O)N3)cc1 (stereo partly drawn) [I-218, Ac-PL3-Asp-Ala-B5-Asp-Glu-Ala-Ala-MeTyr-Val-S8-Phe-Trp-Gln-NH2]	0.09	–	–	–	–	–	–	–	–	–	–	–
CC(=O)N1CCC[C@]12CC=CCCCC1(CCCC=CCCCOC(=O)N3CC[C@@](C(=O)N[C@@H](Cc4ccccc4Cl)C(=O)N[C@@H](Cc4csc5ccccc45)C(=O)N[C@@H](CCC(N)=O)C(N)=O)(C3)NC(=O)[C@H](CO)NC(=O)[C@H](Cc3ccccc3)NC(=O)[C@H](C)NC(=O)[C@H](C)NC(=O)[C@H](CC(=O)O)NC(=O)[C@H](CC(=O)O)NC1=O)NC(=O)[C@H](CC1CCCCC1)NC(=O)[C@H](CC(=O)O)NC2=O (stereo partly drawn) [I-1044, Ac-PL3-Asp-Cha-B5-Asp-Asp-Ala-Ala-Phe-Ser-PyrS2-2C1F-BztA-Gln-NH2]	–	17.6	20	14.5	0.005	43 (≈ 83.7 µg/mL)	2.32	–	–	–	–	–
CC(=O)N1CCC[C@]12CC=CCCCC1(CCCC=CCCCOC(=O)N3CC[C@@](C(=O)N[C@@H](Cc4ccsc4)C(=O)N[C@@H](Cc4csc5ccccc45)C(=O)N[C@@H](CCC(N)=O)C(N)=O)(C3)NC(=O)[C@H]([C@@H](C)O)NC(=O)[C@H](Cc3ccccc3)NC(=O)[C@H](C)NC(=O)[C@H](C)NC(=O)[C@H](CC(=O)O)NC(=O)[C@H](CC(=O)O)NC1=O)NC(=O)[C@H](CC(C)(C)C)NC(=O)[C@H](CC(=O)O)NC2=O (stereo partly drawn) [I-809, Ac-PL3-Asp-Npg-B5-Asp-Asp-Ala-Ala-Phe-Thr-PyrS2-3Thi-BztA-Gln-NH2]	–	–	–	11.3	0.005	36 (≈ 68.6 µg/mL)	2.1	6.1	11.7	–	–	–
CC(=O)N1CCC[C@]12CC=CCCCC1(CCCC=CCCCOC(=O)N3CC[C@@](C(=O)N[C@@H](Cc4ccccc4Cl)C(=O)N[C@@H](Cc4csc5ccccc45)C(=O)N[C@@H](CCC(N)=O)C(N)=O)(C3)NC(=O)[C@H](CC(N)=O)NC(=O)[C@H](Cc3ccccc3)NC(=O)[C@H](C)NC(=O)[C@H](Cc3ccccc3)NC(=O)[C@H](CN(CC(=O)O)CC(F)(F)F)NC(=O)[C@H](CC(=O)O)NC1=O)NC(=O)[C@H](CC(C)(C)C)NC(=O)[C@H](CC(=O)O)NC2=O (stereo partly drawn) [I-1008, Ac-PL3-Asp-Npg-B5-Asp-TfeGA-Phe-Ala-Phe-Asn-PyrS2-2C1F-BztA-Gln-NH2]	–	14	13	4.7	0.009	34 (≈ 72.5 µg/mL)	2.43	–	–	–	–	–
CC(=O)N1CCC[C@]12CC=CCCCC1(CCCC=CCCCOC(=O)N3CC[C@@](C(=O)N[C@@H](Cc4ccccc4Cl)C(=O)N[C@@H](Cc4csc5ccccc45)C(=O)N[C@@H](C(N)=O)[C@H](C)O)(C3)NC(=O)[C@H](CC(N)=O)NC(=O)[C@H](Cc3ccccc3)NC(=O)[C@H](C)NC(=O)[C@H](C)NC(=O)[C@H](CC(=O)O)NC(=O)[C@H](CCC(=O)O)NC1=O)NC(=O)[C@H](CC(C)(C)C)NC(=O)[C@H](CC(=O)O)NC2=O (stereo partly drawn) [I-1030, Ac-PL3-Asp-Npg-B5-Glu-Asp-Ala-Ala-Phe-Asn-PyrS2-2C1F-BztA-dThr-NH2]	–	> 20	> 20	–	0.507	47 (≈ 90.9 µg/mL)	2.76	–	–	–	–	–

Further lines, results first:

EC50 [1] [µM]	IC50 [2, 5] [µM]	IC50 [3, 6] [µM]	IC50 [3, 7] [µM]	IC50 ([4]; read-out: beta-Catenin FP IC50) [µM]	Solubility (Solubility in PBS; Solubility (uM)) [µM]	chromatographic logD (CHI Log D procedure)	IC50 ([2]; read-out: NanoBRET Abs IC50) [µM]	IC50 ([2]; read-out: NanoBRET IC50) [µM]	IC50 ([4]; fluorescence polarization, beta-catenin, read-out: FP EC50) [µM]	Solubility (Solubility in PBS) [µM]	CHI Log D (CHI Log D procedure; pH 7.4)	Structure (SMILES)
–	10.6	> 20	–	0.005	47 (≈ 97.5 µg/mL)	2	–	–	–	–	–	CC(=O)N1CCC[C@]12CC=CCCCC1(CCCC=CCCCOC(=O)N3CC[C@@](C(=O)N[C@@H](Cc4ccccc4Cl)C(=O)N[C@@H](Cc4csc5ccccc45)C(=O)N[C@@H](CCC(N)=O)C(N)=O)(C3)NC(=O)[C@H](CC(N)=O)NC(=O)[C@H](Cc3ccccc3)NC(=O)[C@H](CO)NC(=O)[C@H](C)NC(=O)[C@H](CN(CC(=O)O)CC(F)(F)F)NC(=O)[C@H](CC(=O)O)NC1=O)NC(=O)[C@H](CC(C)(C)C)NC(=O)[C@H](CC(=O)O)NC2=O (stereo partly drawn) [I-1004, Ac-PL3-Asp-Npg-B5-Asp-TfeGA-Ala-Ser-Phe-Asn-PyrS2-2C1F-BztA-Gln-NH2]
–	24.9	3.3	–	0.006	18 (≈ 37.8 µg/mL)	2.45	–	–	–	–	–	CC(=O)N1CCC[C@]12CC=CCCCC1(CCCC=CCCCOC(=O)N3CC[C@@](C(=O)N[C@@H](Cc4ccccc4Cl)C(=O)N[C@@H](Cc4csc5ccccc45)C(=O)N[C@@H](CCC(N)=O)C(N)=O)(C3)NC(=O)[C@H](CC(N)=O)NC(=O)[C@H](Cc3ccccc3)NC(=O)[C@H](C)NC(=O)[C@H](CC(C)C)NC(=O)[C@H](CN(CC(=O)O)CC(F)(F)F)NC(=O)[C@H](CC(=O)O)NC1=O)NC(=O)[C@H](CC(C)(C)C)NC(=O)[C@H](CC(=O)O)NC2=O (stereo partly drawn) [I-1007, Ac-PL3-Asp-Npg-B5-Asp-TfeGA-Leu-Ala-Phe-Asn-PyrS2-2C1F-BztA-Gln-NH2]
–	–	3.4	–	0.005	24 (≈ 46.8 µg/mL)	2.27	3.2	5.3	–	–	–	CC(=O)N1CCC[C@]12CC=CCCCC1(CCCC=CCCCOC(=O)N3CC[C@@](C(=O)N[C@@H](Cc4ccsc4)C(=O)N[C@@H](Cc4csc5ccccc45)C(=O)N[C@@H](CCC(N)=O)C(N)=O)(C3)NC(=O)[C@H](Cc3ccccc3)NC(=O)[C@H](Cc3ccccc3)NC(=O)[C@H](C)NC(=O)[C@H](C)NC(=O)[C@H](CC(=O)O)NC(=O)[C@H](CC(=O)O)NC1=O)NC(=O)[C@H](CC(C)(C)C)NC(=O)[C@H](CC(=O)O)NC2=O (stereo partly drawn) [I-807, Ac-PL3-Asp-Npg-B5-Asp-Asp-Ala-Ala-Phe-Phe-PyrS2-3Thi-BztA-Gln-NH2]
–	9.3	> 20	–	0.009	–	–	9.3	–	0.009	44 (≈ 83.2 µg/mL)	2.766	CC(=O)N1CCC[C@]12CC=CCCCC1(CCCC=CCCCCCC[C@@](C)(C(=O)N[C@@H](Cc3ccccc3Cl)C(=O)N[C@@H](Cc3csc4ccccc34)C(=O)N[C@@H](CCC(N)=O)C(N)=O)NC(=O)[C@H]([C@@H](C)O)NC(=O)[C@H](Cc3ccccc3)NC(=O)[C@H](C)NC(=O)[C@H](C)NC(=O)[C@H](CC(=O)O)NC(=O)[C@H](CC(=O)O)NC1=O)NC(=O)[C@H](CC(C)(C)C)NC(=O)[C@H](CC(=O)O)NC2=O (stereo partly drawn) [I-1087, Ac-PL3-Asp-Npg-B5-Asp-Asp-Ala-Ala-Phe-Thr-S8-2C1F-BztA-Gln-NH2]
–	8.7	6.4	3.6	0.013	–	2.4	–	–	–	10 (≈ 19.2 µg/mL)	–	CC(=O)N1CCC[C@]12CC=CCCCC1(CCCC=CCCCOC(=O)N3CC[C@@](C(=O)N[C@@H](Cc4ccccc4Cl)C(=O)N[C@@H](Cc4csc5ccccc45)C(=O)N[C@@H](C(N)=O)[C@H](C)O)(C3)NC(=O)[C@H](CC(N)=O)NC(=O)[C@H](Cc3ccccc3)NC(=O)[C@H](C)NC(=O)[C@H](C)NC(=O)[C@H](CC(=O)O)NC(=O)[C@H](CC(=O)O)NC1=O)NC(=O)[C@H](CC(C)(C)C)NC(=O)[C@H](CC(=O)O)NC2=O (stereo partly drawn) [I-1028, Ac-PL3-Asp-Npg-B5-Asp-Asp-Ala-Ala-Phe-Asn-PyrS2-2C1F-BztA-dThr-NH2]
